This note sets out measurements from patent EP4617278A1, “NUCLEOTIDE ANALOG, AND COMPOSITION AND USE THEREOF” (priority 2022, dated 2024).

The term EC50 denotes the concentration that produces a half-maximal response.

This experiment has as its system SARS-CoV-2 replicon. In kind it is cell-based. To be noted: read-out: SARS-CoV-2 Replicon (Huh-7cell) EC50. On the technique in general: Replicon systems follow genome replication, usually without infectious particles.
Regarding `CCCCC/C=C\C/C=C\CCCCCCCCOC(=O)[C@H](C)N[P@](=O)(OCOC(=O)OC(C)C)OC[C@H]1O[C@@](C#N)(c2ccc3c(N)ncnn23)[C@H](OC(=O)C(C)C)[C@@H]1OC(=O)C(C)C` [Compound 52a, (2R,3R,4R,5R)-2-(4-aminopyrrolo[2,1-f][1,2,4]triazin-7-yl)-2-cyano-5-((((R)-(((isopropoxycarbonyl)oxy)methoxy)(((S)-1-(((9Z,12Z)-octadeca-9,12-dien-1-yl)oxy)-1-oxopropan-2-yl)amino)phosphoryl)oxy)methyl)tetrahydrofuran-3,4-diyl bis(2-methylpropionate)], the EC50 lay within 50 to 500 nM.
As for `CCC(=O)O[C@H]1[C@@H](OC(=O)CC)[C@](C#N)(c2ccc3c(N)ncnn23)O[C@@H]1COP(=O)(OCOC(=O)OC(C)C)OCOC(=O)OC(C)C` [Compound 18, (2R,3R,4R,5R)-2-(4-aminopyrrolo[2,1-f][1,2,4]triazin-7-yl)-5-((((bis(((isopropoxycarbonyl)oxy)methoxy))phosphoryl)oxy)methyl)-2-cyanotetrahydrofuran-3,4-diyl dipropionate], the 50% effective concentration (EC50) was under 5 nM.
`CC(C)OC(=O)OCOP(=O)(OCOC(=O)OC(C)C)OC[C@H]1O[C@@](C#N)(c2ccc3c(N)ncnn23)[C@H](OC(=O)C(C)(C)C)[C@@H]1OC(=O)C(C)(C)C` [Compound 20, (2R,3R,4R,5R)-2-(4-aminopyrrolo[2,1-f][1,2,4]triazin-7-yl)-5-((((bis(((isopropoxycarbonyl)oxy)methoxy))phosphoryl)oxy)methyl)-2-cyanotetrahydrofuran-3,4-diyl bis(2,2-dimethylpropionate)]: the EC50 fell in the range of 10 to 50 nM.
Under `CC(C)C(=O)O[C@H]1[C@@H](OC(=O)C(C)C)[C@](C#N)(c2ccc3c(N)ncnn23)O[C@@H]1CO[P@@](=O)(OCOC(=O)C(C)(C)C)Oc1ccc(C(C)(C)C)cc1` [Compound 44b, (2R,3R,4R,5R)-2-(4-aminopyrrolo[2,1-f][1,2,4]triazin-7-yl)-5-(((((R)-4-tert-butylphenoxy)(((tert-butylcarbonyl)oxy)methoxy)phosphoryl)oxy)methyl)-2-cyanotetrahydrofuran-3,4-diyl bis(2-methylpropionate)] stands 10 to 50 nM; under `CCC(CC)COC(=O)[C@H](C)N[P@](=O)(OCc1ccccc1C)OC[C@H]1O[C@@](C#N)(c2ccc3c(N)ncnn23)[C@H](OC(=O)C(C)C)[C@@H]1OC(=O)C(C)C` [Compound 16a, (2R,3R,4R,5R)-2-(4-aminopyrrolo[2,1-f][1,2,4]triazin-7-yl)-2-cyano-5-((((S)-(((S)-1-(2-ethylbutoxy)-1-oxopropan-2-yl)amino)((2-methylbenzyl)oxy)phosphoryl)oxy)methyl)tetrahydrofuran-3,4-diyl bis(2-methylpropionate)], 50 to 500 nM.
Under `CCC(CC)COC(=O)[C@H](C)N[P@@](=O)(OCOC(=O)C(C)(C)C)OC[C@H]1O[C@@](C#N)(c2ccc3c(N)ncnn23)[C@H](OC(=O)C(C)(C)C)[C@@H]1OC(=O)C(C)(C)C` [Compound 12b, (2R,3R,4R,5R)-2-(4-aminopyrrolo[2,1-f][1,2,4]triazin-7-yl)-2-cyano-5-((((S)-(((S)-1-(2-ethylbutoxy)-1-oxopropan-2-yl)amino)((pivaloyloxy)methoxy)phosphoryl)oxy)methyl)tetrahydrofuran-3,4-diyl bis(2,2-dimethylpropionate)] stands 50 to 500 nM; under `CC(C)OC(=O)OCO[P@@](=O)(N[C@@H](C)C(=O)OC(C)C)OC[C@H]1O[C@@](C#N)(c2ccc3c(N)ncnn23)[C@H](OC(=O)C(C)C)[C@@H]1OC(=O)C(C)C` [Compound 3a, (2R,3R,4R,5R)-2-(4-aminopyrrolo[2,1-f][1,2,4]triazin-7-yl)-2-cyano-5-((((R)-(((S)-1-isopropoxy-1-oxopropan-2-yl)amino)(((isopropoxycarbonyl)oxy)methoxy)phosphoryl)oxy)methyl)tetrahydrofuran-3,4-diyl bis(2-methylpropionate)], 10 to 50 nM.
Next, “(2R,3R,4R,5R)-2-(4-aminopyrrolo[2,1-f][1,2,4]triazin-7-yl)-5-((((bis(((isopropoxycarbonyl)oxy)methoxy))phosphoryl)oxy)methyl)-2-cyanotetrahydrofuran-3,4-diyldiisopropyl bis(carbonate) [Compound 28]”: 10 to 50 nM; `CCC(CC)COC(=O)C1(N[P@](=O)(OC[C@H]2O[C@@](C#N)(c3ccc4c(N)ncnn34)[C@H](OC(=O)C(C)C)[C@@H]2OC(=O)C(C)C)Oc2ccccc2)CCC1` [Compound 40b, (2R,3R,4R,5R)-2-(4-aminopyrrolo[2,1-f][1,2,4]triazin-7-yl)-2-cyano-5-((((S)-((1-((2-ethylbutoxy)carbonyl)cyclobutyl)amino)(phenoxy)phosphoryl)oxy)methyl)tetrahydrofura n-3,4-diyl bis(2-methylpropionate)]: 50 to 500 nM; `CC(C)OC(=O)OCOP(=O)(OCOC(=O)OC(C)C)OC[C@H]1O[C@@](C#N)(c2c(Br)cc3c(N)ncnn23)[C@H](OC(=O)C(C)C)[C@@H]1OC(=O)C(C)C` [Compound 65, (2R,3R,4R,5R)-2-(4-amino-6-bromopyrrolo[2,1-f][1,2,4]triazin-7-yl)-5-(((bis(((isopropoxycarbonyl)oxy)methoxy)phosphoryl)oxy)methyl)-2-cyanotetrahydrofuran-3,4-diyl bis(2-methylpropionate)]: 50 to 500 nM.
With “(2R,3R,4R,5R)-2-(4-aminopyrrolo[2,1-f][1,2,4]triazin-7-yl)-2-cyano-5-((((S)-(((S)-1-isopropoxy-1-oxopropan-2-yl)amino)(((isopropoxycarbonyl)oxy)methoxy)phosphoryl)oxy)methyl)tetrahydrofuran-3,4-diyl diacetate [Compound 1b]”, the EC50 was 5 to 10 nM.
For `CCC(CC)COC(=O)[C@H](C)N[P@](=O)(OCOC(=O)OC(C)C)OC[C@H]1O[C@@](C#N)(c2ccc3c(N)ncnn23)[C@H](OC(=O)C(C)C)[C@@H]1OC(=O)C(C)C` [Compound 7a, (2R,3R,4R,5R)-2-(4-aminopyrrolo[2,1-f][1,2,4]triazin-7-yl)-2-cyano-5-((((R)-(((S)-1-(2-ethylbutoxy)-1-oxopropan-2-yl)amino)(((isopropoxycarbonyl)oxy)methoxy)phosphoryl)oxy)methyl)tetrahydrofuran-3,4-diyl bis(2-methylpropionate)], the concentration for a half-maximal effect (EC50) fell in the range of 10 to 50 nM.
For the molecule `CCC(CC)COC(=O)C[C@H](N[P@](=O)(OC[C@H]1O[C@@](C#N)(c2ccc3c(N)ncnn23)[C@H](OC(=O)C(C)C)[C@@H]1OC(=O)C(C)C)Oc1ccccc1)C(=O)OCC(CC)CC` [Compound 62b, (2R,3R,4R,5R)-2-(4-aminopyrrolo[2,1-f][1,2,4]triazin-7-yl)-2-cyano-5-((((S)-(((S)-1,4-bis(2-ethylbutoxy)-1,4-dioxobutan-2-yl)amino)(phenoxy)phosphoryl)oxy)methyl)tetrahydrofuran-3,4-diyl bis(2-methylpropionate)], the EC50 fell in the range of 10 to 50 nM.
Regarding `CCC(=O)O[C@H]1[C@@H](OC(=O)CC)[C@](C#N)(c2ccc3c(N)ncnn23)O[C@@H]1CO[P@@](=O)(N[C@@H](C)C(=O)OCC(CC)CC)OCOC(=O)OC(C)C` [Compound 6b, (2R,3R,4R,5R)-2-(4-aminopyrrolo[2,1-f][1,2,4]triazin-7-yl)-2-cyano-5-((((S)-(((S)-1-(2-ethylbutoxy)-1-oxopropan-2-yl)amino)(((isopropoxycarbonyl)oxy)methoxy)phosphoryl)oxy)methyl)tetrahydrofuran-3,4-diyl dipropionate], the EC50 is at most 5 nM.
Under `CCC(=O)O[C@H]1[C@@H](OC(=O)CC)[C@](C#N)(c2ccc3c(N)ncnn23)O[C@@H]1CO[P@@](=O)(N[C@@H](C)C(=O)OCC(CC)CC)OCOC(=O)C(C)(C)C` [Compound 10b, (2R,3R,4R,5R)-2-(4-aminopyrrolo[2,1-f][1,2,4]triazin-7-yl)-2-cyano-5-((((S)-(((S)-1-(2-ethylbutoxy)-1-oxopropan-2-yl)amino)((pivaloyloxy)methoxy)phosphoryl)oxy)methyl)tetrahydrofuran-3,4-diyl dipropionate] stands at most 5 nM; under `CCC(CC)COC(=O)[C@H](Cc1ccccc1)N[P@](=O)(OCOC(=O)OC(C)C)OC[C@H]1O[C@@](C#N)(c2ccc3c(N)ncnn23)[C@H](OC(=O)C(C)C)[C@@H]1OC(=O)C(C)C` [Compound 31a, (2R,3R,4R,5R)-2-(4-aminopyrrolo[2,1-f][1,2,4]triazin-7-yl)-2-cyano-5-((((R)-(((S)-1-(2-ethylbutoxy)-1-oxo-3-phenylpropan-2-yl)amino)(((isopropoxycarbonyl)oxy)methoxy)phosphoryl)oxy)methyl)tetrahydrofuran-3,4-diyl bis(2-methylpropionate)], 10 to 50 nM.
Regarding “(2R,3R,4R,5R)-2-(4-aminopyrrolo[2,1-f][1,2,4]triazin-7-yl)-2-cyano-5-((((R)-(((S)-1-isopropoxy-1-oxopropan-2-yl)amino)(((isopropoxycarbonyl)oxy)methoxy)phosphoryl)oxy)methyl)tetrahydrofuran-3,4-diyl diacetate [Compound 1a]”, the EC50 fell in the range of 10 to 50 nM.
Consider `CC(C)OC(=O)OCO[P@](=O)(N[C@@H](C)C(=O)OC(C)C)OC[C@H]1O[C@@](C#N)(c2ccc3c(N)ncnn23)[C@H](OC(=O)C(C)C)[C@@H]1OC(=O)C(C)C` [Compound 3b, (2R,3R,4R,5R)-2-(4-aminopyrrolo[2,1-f][1,2,4]triazin-7-yl)-2-cyano-5-((((S)-(((S)-1-isopropoxy-1-oxopropan-2-yl)amino)(((isopropoxycarbonyl)oxy)methoxy)phosphoryl)oxy)methyl)tetrahydrofuran-3,4-diyl bis(2-methylpropionate)], for which the EC50 was under 5 nM.
Next, `CCCCCCCCCCCCOC(=O)[C@H](C)N[P@@](=O)(OC[C@H]1O[C@@](C#N)(c2ccc3c(N)ncnn23)[C@H](OC(=O)C(C)C)[C@@H]1OC(=O)C(C)C)Oc1ccccc1` [Compound 46a]: 50 to 500 nM; `CCC(CC)COC(=O)[C@H](C)N[P@@](=O)(OCOC(=O)OC(C)C)OC[C@H]1O[C@@](C#N)(c2ccc3c(N)ncnn23)[C@H](OC(=O)C(C)C)[C@@H]1OC(=O)C(C)C` [Compound 7b, (2R,3R,4R,5R)-2-(4-aminopyrrolo[2,1-f][1,2,4]triazin-7-yl)-2-cyano-5-((((S)-(((S)-1-(2-ethylbutoxy)-1-oxopropan-2-yl)amino)(((isopropoxycarbonyl)oxy)methoxy)phosphoryl)oxy)methyl)tetrahydrofuran-3,4-diyl bis(2-methylpropionate)]: 10 to 50 nM.
